Test results reported in US12551536B2, “Semaglutide in medical therapy” (Novo Nordisk A/S, priority 2017, dated 2026).

Columns and labels:
Assay type in all cases: in vivo, human
[1] = 52-week clinical trial of once-daily semaglutide in obese subjects without diabetes mellitus: change in body weight; settings: for Change in body weight (%) from baseline to week 52, Change (%) Estimate / Change in body weight, Treatment difference (%-points) vs. Lira 3.0 mg / Change in body weight, Treatment difference (%-points) vs. Placebo Pool: ANCOVA, J2R-MI; for Change in body weight (%) from baseline at week 52, Model prediction (Estimate) %: Emax dose-response modelling; for Change in body weight (%) from baseline to week 52, Subjects in-trial, Mean / Change in body weight (%) from baseline to week 52, Subjects on-treatment, Mean: observed data
Experimental: This trial was designed as a 52-week, randomised, double-blind, placebo-controlled, sixteen-armed, parallel group, multi-centre, multinational trial comparing once-daily subcutaneous administration of semaglutide in five different doses (ranging from 0.05 mg/day to 0.4 mg/day) with placebo in obese subjects without diabetes mellitus. […] The trial was double-blinded between active and placebo treatment. To ensure a sufficiently large sample of men, no more than 70% of the trial population was allowed to be women and the randomisation was stratified according to sex. Subjects were randomised in a balanced manner (6:1 active:placebo).
The primary endpoint was relative change from baseline in body weight (%) at 52 weeks. Key secondary endpoints included proportion of subjects with weight loss of ≥5% or ≥10% of baseline body weight at 52 weeks as well as change in body weight from baseline to 52 weeks. Supportive secondary safety endpoints also included gastrointestinal (GI) adverse events (i.e. nausea, vomiting, diarrhoea and constipation). During each site visit the individual subject was asked via open questions if they had experienced any medical problems since the last visit. All medical problems either observed by the site staff or the subject was reported as an adverse event and evaluated for severity and causality by the investigator. For this trial the subjects had site visits every 2 weeks for the first 20 weeks of the trial and afterwards site visits was performed every 4 weeks.
Subjects in all treatment arms including placebo received nutritional counselling and a calorie-reduced diet by a dietician or equivalent qualified delegate as well as physical activity counselling by a qualified person on a monthly basis beginning at the randomisation visit. The trial population consisted of a total of 957 subjects were randomised. A total of 777 subjects (81.2%) completed 52 weeks of treatment; 180 (18.8%) discontinued treatment prematurely with no obvious dose-dependent trend. Key inclusion criteria for this trial were: Male or female, age ≥18 years at the time of signing inform consent; body mass index (BMI)≥30.0 kg/m2 at the screening visit; and at least one unsuccessful weight loss attempt per investigator judgement. Key exclusion criteria for this trial were: A HbA1c≥6.5% at screening or diagnosed with type 1 or type 2 diabetes mellitus; Treatment with glucose lowering agent(s) within 90 days before screening; Screening calcitonin ≥50 ng/L (pg/mL); Personal or family history of medullary thyroid carcinoma or multiple endocrine neoplasia syndrome type 2; History of pancreatitis (acute or chronic); Obesity induced by endocrine disorders (e.g. Cushing Syndrome); Treatment with any medication within 90 days before screening that based on investigator's judgement may cause significant weight change; Previous surgical treatment for obesity (liposuction and/or abdominoplasty performed >1 year before screening is allowed); History of major depressive disorder within 2 years before randomisation; Any lifetime history of a suicidal attempt; and Female who is pregnant, breast-feeding or intends to become pregnant or is of childbearing potential and not using an adequate contraceptive method (adequate contraceptive measures as required by local regulation or practice).
Statistical analyses of effect endpoints: The primary analysis was based on a ‘jump-to-reference’ multiple imputation approach (J2R-MI). Week 52 data from subjects who discontinued trial product and returned for the visit at week 52 were included in the analysis. First, an imputation model using observed week 52 body weight (kg) measurements from the placebo arm only were estimated. Second, multiple copies (1000) of the full analysis set were generated by imputing missing values in all treatment arms from the imputation model. The primary endpoint was calculated in each complete data set and analysed using an analysis of covariance (ANCOVA) model. […]

[2] = 26-week clinical trial in adult patients with T2D: body weight change; settings: on-treatment, estimated data
Experimental: (§1) A 26-week, randomized, double-blind clinical trial was carried out with adult patients with T2D, HbA1c 7.0-10.0% (53-86 mmol/mol), and body mass index 24.0-40.0 kg/m^2 who were treated with diet and exercise±metformin. […] The primary endpoint was change in HbA1c from baseline to week 26. Key exclusion criteria were a history of chronic or idiopathic acute pancreatitis and moderate-to-severe renal impairment (estimated glomerular filtration rate <60 mL/min/1.73 m^2).
(§2) Trial drug administration: Following a 2-week screening period, patients received trial medication for 26 weeks, followed by a 7-week follow-up period. […] The trial was double blinded within (but not between) each dose level of semaglutide, liraglutide and placebo, as treatment was volume matched.

[3] = 26-week clinical trial in adult patients with T2D: gastrointestinal adverse events incl. nausea; settings: on-treatment
Experimental: as §1, §2

[4] = Sema 0.05 mg once daily s.c., week 52
[5] = Sema 0.1 mg once daily s.c., week 52
[6] = Sema 0.2 mg once daily s.c., week 52
[7] = Sema 0.3 mg once daily s.c., week 52
[8] = Sema 0.4 mg once daily s.c., week 52
[9] = Sema 0.05 mg once daily s.c., N 64
[10] = Sema 0.1 mg once daily s.c., N 63
[11] = Sema 0.2 mg once daily s.c., N 65
[12] = Sema 0.3 mg once daily s.c., N 63

Substance: N^6.26-{18-[N-(17-carboxyheptadecanoyl)-L-γ-glutamyl]-10-oxo-3,6,12,15-tetraoxa-9,18-diazaoctadecanoyl}-[8-(2-amino-2-propanoic acid),34-L-arginine]human glucagon-like peptide 1(7-37) [Sema]
- Corresponding Sema dose (dosage of semaglutide providing the same body weight reduction as 3.0 mg liraglutide) ([1]; Lira 3.0 mg, Emax model, Estimate [95% CI], week 52): 0.08 mg
- Change in body weight (%) from baseline to week 52, Change (%) Estimate ([1]; Sema 0.05 mg once daily s.c.): −5.99%
- Change in body weight, Treatment difference (%-points) vs. Lira 3.0 mg [1, 4]: 1.77 %-points
- Change in body weight, Treatment difference (%-points) vs. Placebo Pool [1, 4]: −3.70 %-points
- Change in body weight (%) from baseline at week 52, Model prediction (Estimate) % ([1]; Sema 0.05 mg): −6.19%
- Change in body weight (%) from baseline to week 52, Change (%) Estimate ([1]; Sema 0.1 mg once daily s.c.): −8.62%
- Change in body weight (%) from baseline to week 52, Subjects in-trial, Mean ([1]; Sema 0.1 mg once daily s.c.): −9.11%
- Change in body weight (%) from baseline to week 52, Subjects on-treatment, Mean ([1]; Sema 0.1 mg once daily s.c.): −9.76%
- Change in body weight, Treatment difference (%-points) vs. Lira 3.0 mg [1, 5]: −0.85 %-points
- Change in body weight, Treatment difference (%-points) vs. Placebo Pool [1, 5]: −6.32 %-points
- Change in body weight (%) from baseline at week 52, Model prediction (Estimate) % ([1]; Sema 0.1 mg): −8.47%
- Change in body weight (%) from baseline to week 52, Change (%) Estimate ([1]; Sema 0.2 mg once daily s.c.): −11.60%
- Change in body weight (%) from baseline to week 52, Subjects in-trial, Mean ([1]; Sema 0.2 mg once daily s.c.): −12.54%
- Change in body weight (%) from baseline to week 52, Subjects on-treatment, Mean ([1]; Sema 0.2 mg once daily s.c.): −13.68%
- Change in body weight, Treatment difference (%-points) vs. Lira 3.0 mg [1, 6]: −3.83 %-points
- Change in body weight, Treatment difference (%-points) vs. Placebo Pool [1, 6]: −9.31 %-points
- Change in body weight (%) from baseline at week 52, Model prediction (Estimate) % ([1]; Sema 0.2 mg): −11.00%
- Change in body weight (%) from baseline to week 52, Change (%) Estimate ([1]; Sema 0.3 mg once daily s.c.): −11.17%
- Change in body weight (%) from baseline to week 52, Subjects in-trial, Mean ([1]; Sema 0.3 mg once daily s.c.): −12.06%
- Change in body weight (%) from baseline to week 52, Subjects on-treatment, Mean ([1]; Sema 0.3 mg once daily s.c.): −12.97%
- Change in body weight, Treatment difference (%-points) vs. Lira 3.0 mg [1, 7]: −3.41 %-points
- Change in body weight, Treatment difference (%-points) vs. Placebo Pool [1, 7]: −8.88 %-points
- Change in body weight (%) from baseline at week 52, Model prediction (Estimate) % ([1]; Sema 0.3 mg): −12.37%
- Change in body weight (%) from baseline to week 52, Change (%) Estimate ([1]; Sema 0.4 mg once daily s.c.): −13.84%
- Change in body weight (%) from baseline to week 52, Subjects in-trial, Mean ([1]; Sema 0.4 mg once daily s.c.): −13.96%
- Change in body weight (%) from baseline to week 52, Subjects on-treatment, Mean ([1]; Sema 0.4 mg once daily s.c.): −16.17%
- Change in body weight, Treatment difference (%-points) vs. Lira 3.0 mg [1, 8]: −6.08 %-points
- Change in body weight, Treatment difference (%-points) vs. Placebo Pool [1, 8]: −11.55 %-points
- Change in body weight (%) from baseline at week 52, Model prediction (Estimate) % ([1]; Sema 0.4 mg): −13.24%
- Change in body weight (%) from baseline to week 52, Subjects in-trial, Mean ([1]; Sema 0.5 mg once daily s.c.): −6.33%
- Change in body weight (%) from baseline to week 52, Subjects on-treatment, Mean ([1]; Sema 0.5 mg once daily s.c.): −6.79%
- Body weight change, mean (kg), baseline to week 26 ([2]; Sema 0.05 mg once daily s.c.): -2.8 kg
- Body weight change, mean (kg), baseline to week 26 ([2]; Sema 0.1 mg once daily s.c.): -4.3 kg
- Body weight change, mean (kg), baseline to week 26 ([2]; Sema 0.2 mg once daily s.c.): -6.7 kg
- Body weight change, mean (kg), baseline to week 26 ([2]; Sema 0.3 mg once daily s.c.): -8.2 kg
- Gastrointestinal adverse events, % (percentage of patients experiencing at least one event) ([3]; Sema 0.05 mg once daily s.c.): 32.8%
- Gastrointestinal adverse events, E (number of events) ([3]; Sema 0.05 mg once daily s.c.): 61
- Nausea, % (percentage of patients experiencing at least one event) ([3]; Sema 0.05 mg once daily s.c.): 17.2%
- Nausea, E (number of events) ([3]; Sema 0.05 mg once daily s.c.): 16
- Gastrointestinal adverse events, Ne (number of patients experiencing at least one event) [3, 9]: 21
- Nausea, Ne (number of patients experiencing at least one event) [3, 9]: 11
- Gastrointestinal adverse events, % (percentage of patients experiencing at least one event) ([3]; Sema 0.1 mg once daily s.c.): 44.4%
- Gastrointestinal adverse events, E (number of events) ([3]; Sema 0.1 mg once daily s.c.): 90
- Nausea, % (percentage of patients experiencing at least one event) ([3]; Sema 0.1 mg once daily s.c.): 19.0%
- Nausea, E (number of events) ([3]; Sema 0.1 mg once daily s.c.): 20
- Gastrointestinal adverse events, Ne (number of patients experiencing at least one event) [3, 10]: 28
- Nausea, Ne (number of patients experiencing at least one event) [3, 10]: 12
- Gastrointestinal adverse events, % (percentage of patients experiencing at least one event) ([3]; Sema 0.2 mg once daily s.c.): 46.2%
- Gastrointestinal adverse events, E (number of events) ([3]; Sema 0.2 mg once daily s.c.): 106
- Nausea, % (percentage of patients experiencing at least one event) ([3]; Sema 0.2 mg once daily s.c.): 21.5%
- Nausea, E (number of events) ([3]; Sema 0.2 mg once daily s.c.): 22
- Gastrointestinal adverse events, Ne (number of patients experiencing at least one event) [3, 11]: 30
- Nausea, Ne (number of patients experiencing at least one event) [3, 11]: 14
- Gastrointestinal adverse events, % (percentage of patients experiencing at least one event) ([3]; Sema 0.3 mg once daily s.c.): 54.0%
- Gastrointestinal adverse events, E (number of events) ([3]; Sema 0.3 mg once daily s.c.): 101
- Nausea, % (percentage of patients experiencing at least one event) ([3]; Sema 0.3 mg once daily s.c.): 25.4%
- Nausea, E (number of events) ([3]; Sema 0.3 mg once daily s.c.): 22
- Gastrointestinal adverse events, Ne (number of patients experiencing at least one event) [3, 12]: 34
- Nausea, Ne (number of patients experiencing at least one event) [3, 12]: 16
